Experimental data from ChEMBL document CHEMBL1201862, “PubChem BioAssay data set” (2004).
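Cultured in 96-well plates, cells were exposed to test compound for 48 hours across five concentrations. GI50 is the concentration that inhibits growth by half.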 Calls of active or inactive are those of the source. Rule as the data show it: active = GI50 up to about 1.1 µM and inactive = higher.

Assays:
Assay in all cases: NCI-60 cell line screen, 48 h
786-0 = tested on: 786-0
ACHN = tested on: ACHN
CCRF-CEM = tested on: CCRF-CEM
HCT-15 = tested on: HCT-15
HL-60 = tested on: HL-60
HT-29 = tested on: HT-29
K562 = tested on: K562
KM12 = tested on: KM12
M14 = tested on: M14
MDA-MB-231 = tested on: MDA-MB-231
OVCAR-3 = tested on: OVCAR-3
OVCAR-4 = tested on: OVCAR-4
OVCAR-5 = tested on: OVCAR-5
RXF 393 = tested on: RXF 393
SF-295 = tested on: SF-295
SF-539 = tested on: SF-539
TK-10 = tested on: TK-10
U-251 = tested on: U-251
UACC-62 = tested on: UACC-62

CC1OC(OC2C(O)COC(OC3C(C)OC(OC4C(OC(=O)[C@]56CCC(C)(C)C[C@@H]5C5=CCC7[C@@]8(C)C[C@H](O)[C@H](OC9OC(CO)C(O)C(OC%10OC(CO)C(O)C(O)C%10O)C9O)[C@@](C)(CO)[C@@H]8CC[C@@]7(C)[C@]5(C)CC6)OCC(O)C4O)C(O)C3OC3OCC(O)C(O)C3O)C2O)C(O)C(O)C1O (stereo partly drawn)
GI50 (786-0): 5.53 µM (inactive)
GI50 (ACHN): 5.41 µM (inactive)
GI50 (CCRF-CEM): 10.4 µM (inactive)
GI50 (HCT-15): 13.5 µM
GI50 (HL-60): 3.72 µM (inactive)
GI50 (HT-29): 18.7 µM (inactive)
GI50 (K562): 16.7 µM (inactive)
GI50 (KM12): 8.61 µM (inactive)
GI50 (M14): 1.87 µM (inactive)
GI50 (MDA-MB-231): 3.12 µM (inactive)
GI50 (OVCAR-3): 11.4 µM (inactive)
GI50 (OVCAR-4): 11.7 µM (inactive)
GI50 (OVCAR-5): 7.43 µM (inactive)
GI50 (RXF 393): 5.55 µM (inactive)
GI50 (SF-295): 3.14 µM (inactive)
GI50 (SF-539): 14.6 µM (inactive)
GI50 (TK-10): 10 µM (inactive)
GI50 (U-251): 5.62 µM (inactive)
GI50 (UACC-62): 3.66 µM (inactive)

CC(NCCN(C)C)C1CCC2C3CCc4cc(O)ccc4C3CCC12C (stereo not drawn)
GI50 (786-0): 1.83 µM (inactive)
GI50 (ACHN): 2 µM (inactive)
GI50 (CCRF-CEM): 0.723 µM (active)
GI50 (HCT-15): 2.79 µM
GI50 (HL-60): 2.09 µM (inactive)
GI50 (HT-29): 2.89 µM (inactive)
GI50 (K562): 1.86 µM (inactive)
GI50 (KM12): 3.21 µM (inactive)
GI50 (M14): 1.67 µM (inactive)
GI50 (MDA-MB-231): 1.97 µM (inactive)
GI50 (OVCAR-3): 1.88 µM (inactive)
GI50 (OVCAR-4): 3.02 µM (inactive)
GI50 (OVCAR-5): 5.42 µM (inactive)
GI50 (RXF 393): 1.85 µM (inactive)
GI50 (SF-295): 2.59 µM (inactive)
GI50 (SF-539): 4.76 µM (inactive)
GI50 (TK-10): 2.72 µM (inactive)
GI50 (U-251): 2.07 µM (inactive)
GI50 (UACC-62): 1.93 µM (inactive)

Cc1cccc2c(N)c3cccc(C(=O)NCC[N+](C)(C)Cc4ccc(S(C)(=O)=O)cc4)c3nc12
GI50 (786-0): 28 µM (inactive)
GI50 (ACHN): 31.4 µM (inactive)
GI50 (CCRF-CEM): 7.03 µM (inactive)
GI50 (HCT-15): > 100 µM
GI50 (HL-60): 2.8 µM (inactive)
GI50 (HT-29): 36.6 µM (inactive)
GI50 (K562): 10.1 µM (inactive)
GI50 (KM12): 64.6 µM (inactive)
GI50 (M14): > 100 µM (inactive)
GI50 (MDA-MB-231): > 81.3 µM (inactive)
GI50 (OVCAR-3): 67 µM (inactive)
GI50 (OVCAR-4): 41.4 µM (inactive)
GI50 (OVCAR-5): > 95.1 µM (inactive)
GI50 (RXF 393): 76.7 µM (inactive)
GI50 (SF-295): 89.1 µM (inactive)
GI50 (SF-539): 32.4 µM (inactive)
GI50 (TK-10): > 89.1 µM (inactive)
GI50 (U-251): 45.6 µM (inactive)
GI50 (UACC-62): > 95.9 µM (inactive)

C#CCOCC12C=CC(O1)C1C(=O)OCC12 (stereo not drawn)
GI50 (786-0): > 100 µM (inactive)
GI50 (ACHN): > 100 µM (inactive)
GI50 (CCRF-CEM): > 100 µM (inactive)
GI50 (HCT-15): > 100 µM
GI50 (HL-60): > 100 µM (inactive)
GI50 (HT-29): > 100 µM (inactive)
GI50 (K562): > 100 µM (inactive)
GI50 (KM12): > 100 µM (inactive)
GI50 (M14): > 100 µM (inactive)
GI50 (MDA-MB-231): > 100 µM (inactive)
GI50 (OVCAR-3): > 100 µM (inactive)
GI50 (OVCAR-4): > 100 µM (inactive)
GI50 (OVCAR-5): > 100 µM (inactive)
GI50 (RXF 393): > 100 µM (inactive)
GI50 (SF-295): > 100 µM (inactive)
GI50 (SF-539): > 100 µM (inactive)
GI50 (TK-10): > 100 µM (inactive)
GI50 (U-251): > 100 µM (inactive)
GI50 (UACC-62): > 100 µM (inactive)

CC(=O)O[C@H]1C(=O)[C@@]2(C)[C@H]([C@H](OC(=O)c3ccccc3)[C@]3(O)C[C@H](OC(=O)[C@H](O)[C@@H](NC(=O)OC(C)(C)C)c4ccco4)C(C)=C1C3(C)C)[C@]1(OC(C)=O)CO[C@@H]1C[C@@H]2O
GI50 (786-0): 0.00614 µM (active)
GI50 (ACHN): 8.2 µM (inactive)
GI50 (CCRF-CEM): < 0.005 µM (active)
GI50 (HCT-15): 0.00948 µM
GI50 (HL-60): < 0.005 µM (active)
GI50 (HT-29): < 0.005 µM (active)
GI50 (K562): < 0.005 µM (active)
GI50 (KM12): < 0.005 µM (active)
GI50 (M14): 0.0794 µM (active)
GI50 (MDA-MB-231): < 0.005 µM (active)
GI50 (OVCAR-3): 0.00769 µM (active)
GI50 (OVCAR-4): 4.18 µM (inactive)
GI50 (OVCAR-5): 0.00724 µM (active)
GI50 (RXF 393): 0.00899 µM (active)
GI50 (SF-295): 0.00687 µM (active)
GI50 (SF-539): 0.00553 µM (active)
GI50 (TK-10): 0.0116 µM (active)
GI50 (U-251): 0.00661 µM (active)
GI50 (UACC-62): 0.0129 µM (active)

CC(C)/C(Cl)=N\OC(=O)Nc1ccc(F)cc1F
GI50 (786-0): 3.9 µM (inactive)
GI50 (ACHN): 3.36 µM (inactive)
GI50 (CCRF-CEM): 0.836 µM (active)
GI50 (HCT-15): 7.67 µM
GI50 (HL-60): 0.486 µM (active)
GI50 (HT-29): 3.82 µM (inactive)
GI50 (K562): 1.26 µM (inactive)
GI50 (KM12): 17.7 µM (inactive)
GI50 (M14): 2.98 µM (inactive)
GI50 (MDA-MB-231): 2.21 µM (inactive)
GI50 (OVCAR-3): 2.68 µM (inactive)
GI50 (OVCAR-4): 3.76 µM (inactive)
GI50 (OVCAR-5): 17.4 µM (inactive)
GI50 (RXF 393): 3.72 µM (inactive)
GI50 (SF-295): 15.1 µM (inactive)
GI50 (SF-539): 15.8 µM (inactive)
GI50 (TK-10): 5.19 µM (inactive)
GI50 (U-251): 18 µM (inactive)
GI50 (UACC-62): 16.9 µM (inactive)

O=C(O)CC(NC(=O)/C(=C/c1ccccc1)NC(=O)c1ccccc1)C(=O)O (stereo not drawn)
GI50 (786-0): > 100 µM (inactive)
GI50 (ACHN): > 100 µM (inactive)
GI50 (CCRF-CEM): > 100 µM (inactive)
GI50 (HCT-15): > 100 µM
GI50 (HL-60): > 100 µM (inactive)
GI50 (HT-29): > 100 µM (inactive)
GI50 (K562): > 100 µM (inactive)
GI50 (KM12): > 100 µM (inactive)
GI50 (M14): > 100 µM (inactive)
GI50 (MDA-MB-231): > 100 µM (inactive)
GI50 (OVCAR-3): > 100 µM (inactive)
GI50 (OVCAR-4): > 100 µM (inactive)
GI50 (OVCAR-5): > 100 µM (inactive)
GI50 (RXF 393): > 100 µM (inactive)
GI50 (SF-295): > 100 µM (inactive)
GI50 (SF-539): > 100 µM (inactive)
GI50 (TK-10): > 100 µM (inactive)
GI50 (U-251): > 100 µM (inactive)
GI50 (UACC-62): > 100 µM (inactive)
